US12162879B2, “Pyridopyrimidine derivative, preparation method therefor and medical use thereof” (Jiangsu Hengrui Medicine Co., Ltd., priority 2018, dated 2024)

Columns and labels:
[1] = tested on: peripheral blood mononuclear cells (PBMC); assay: Stimulation of IFNγ secretion from PBMC; type: cell-based; settings: minimum effective concentration, human PBMC, 24 hours
Procedure: The stimulating effect of the compounds of the present invention on the ability of secretion of IL12 and IFN γ from PBMC was determined by the following experimental method.
• 1. RMPI 1640 (Invitrogen, 11875); • 2. FBS (Gibco, 10099-141); • 3. Ficoll-Paque PREMIUM (GE, 17-5442-02); • 4. Trypan blue solution (Sigma, T8154-100 ML); • 5. SepMate™-50 (Stemcell, 15460); • 6. Bright-LineIM blood cell counter (Sigma, Z359629-1EA); • 7. 96-well cell culture plate (Corning, 3599); • 8. 96-well v-bottom plate (Corning, 3894); • 9. Human IL-12 ELISA kit (Neobioscience Technology Co., EHC152.96); • 10. Human IFN γ kit (cisbio, 62HIFNGPEG); and • 11. PHERAStar multi-function microplate reader (BMG, PHERAStar). II. Experimental Procedures
The compound was diluted with pure DMSO to a maximum concentration of 5 mM, and a total of 9 points were obtained by a 4-fold gradient dilution. 4 μl of the compound solution was then added to 196 μl of RMPI 1640 medium containing 10% FBS and mixed well. 50 μl of the mixture was taken and added to a 96-well cell culture plate.
All reagents were equilibrated to room temperature. 60 ml of blood from a healthy human and the same volume of PBS (containing 2% FBS) were added to a 250 ml culture flask, gently pipetted, mixed well and diluted. 15 ml of lymphocyte separation solution Ficoll-Paque PREMIUM was added to a 50 ml PBMC centrifuge tube SepMate™-50, followed by the addition of 30 ml of the above diluted blood. The mixture was centrifuged at 1200 g for 10 minutes at room temperature. The supernatant was taken and then centrifuged at 300 g for 8 minutes. The cells were re-suspended in the RMPI 1640 medium containing 10% FBS and counted, and the number of PBMCs was adjusted to 3.33×10^6 cells/ml. 150 μl of the cell solution was added to the plate containing the compounds, and incubated in an incubator at 37° C., 5.0% CO2 for 24 hours. The cell culture plate was placed in a centrifuge, and centrifuged at 1200 rpm for 10 minutes at room temperature. 150 μl of the supernatant was taken from each well.
The reagents in the Human IFN γ test kit were equilibrated to room temperature. The standard and detection antibody were prepared according to the kit's instruction under dark conditions. 16 μl of the supernatant obtained by centrifugation was added to each well, and 4 μl of freshly prepared mixed detection antibody was added to each well. The solution was mixed well by shaking, and incubated overnight in the dark at room temperature. The plate was read by the PHERAStar multi-function microplate reader.
The concentration of the compound that can stimulate PBMC to produce […] that is 3 times higher than the average value of the group without the compound (SD of the group without the compound) was defined as the minimum effective concentration (MEC) value of the compound.

[2] = molecular target: CYP3A4 (testosterone metabolite site) (Homo sapiens (Human), UniProt P08684); assay: Inhibition of enzyme activity of testosterone metabolite site of CYP3A4 in human liver microsomes; type: in vitro ADME; settings: human liver microsome, testosterone probe substrate, 30 minutes
Procedure: The effect of the compounds of the present invention on the enzyme activity of testosterone metabolite site of CYP3A4 in human liver microsomes was determined by the following experimental method.
• 1. Phosphate buffer solution (PBS); • 2. NADPH (Sigma N-1630); • 3. Human liver microsome (Corning Gentest); • 4. ABI QTrap 4000 liquid chromatograph/mass spectrometer (AB Sciex); • 5. Inertsil C8-3 column, 4.6×50 mm, 5 μm (Dikma Technologies Inc., USA); and • 6. CYP probe substrate (testosterone/100 μM, […]) and positive control inhibitor (ketoconazole, Dr. Ehrenstorfer GmbH, C17322500). II. Experimental Procedures
100 mM PBS buffer was formulated, which was then used to formulate 2.5 mg/ml human microsome solution and 5 mM NADPH solution. The 5× concentration of the compound working solution was diluted with PBS in gradients (150, 50, 15, 5, 1.5, 0.15, 0.015, 0 μM). The 5× concentration of ketoconazole working solution was diluted with PBS in gradients (150, 50, 15, 5, 1.5, 0.15, 0.015, 0 μM). […] working solution was diluted with PBS to a concentration of 50 μM.
20 μl of 2.5 mg/ml microsome solution, 20 μl of 50 μM testosterone working solution, 20 μl of MgCl2 solution and 20 μl of the compound working solution (150, 50, 15, 5, 1.5, 0.15, 0.015, 0 μM, different reaction systems for each concentration) were mixed well. For the positive control group, the compound was replaced with the same concentration of ketoconazole. The mixture together with 5 mM NADPH solution was pre-incubated at 37° C. for 5 minutes. After 5 minutes, 20 μl of NADPH was added to each well, the reaction was initiated, and the plate was incubated for 30 minutes. All the incubated samples were present in duplicate. After 30 minutes, 250 μl of acetonitrile containing internal standard (100 ng/ml camptothecin) was added to all samples, mixed well, shaken at 800 rpm for 10 minutes, and then centrifuged at 3700 rpm for 10 minutes. 80 μl of the supernatant was taken and analyzed by LC-MS/MS.
The data was calculated by Graphpad Prism to obtain the IC50 values of the compounds on the testosterone metabolite site of CYP3A4, which are shown in Table 4.

CYP3A4 (testosterone metabolite site), sequence (P08684 whole entry): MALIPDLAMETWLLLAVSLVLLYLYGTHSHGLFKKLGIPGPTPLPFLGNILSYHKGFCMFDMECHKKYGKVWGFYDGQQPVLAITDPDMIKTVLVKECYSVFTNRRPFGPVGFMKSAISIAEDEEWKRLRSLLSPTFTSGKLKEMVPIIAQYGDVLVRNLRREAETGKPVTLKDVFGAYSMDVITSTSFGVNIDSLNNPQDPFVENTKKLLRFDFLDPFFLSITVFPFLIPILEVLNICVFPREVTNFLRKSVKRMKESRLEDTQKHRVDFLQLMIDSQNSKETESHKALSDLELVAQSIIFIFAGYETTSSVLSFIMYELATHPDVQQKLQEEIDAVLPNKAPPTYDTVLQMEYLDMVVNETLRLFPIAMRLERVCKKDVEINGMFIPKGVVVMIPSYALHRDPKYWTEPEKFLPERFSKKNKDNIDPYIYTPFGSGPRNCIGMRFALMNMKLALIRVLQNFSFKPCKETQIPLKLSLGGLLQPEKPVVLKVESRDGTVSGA

| SMILES | IC50 [2] | IFNγ MEC [1] |
| --- | --- | --- |
| CCCC[C@](C)(CO)Nc1nc(N)nc2cc(-c3ccc(CN4CCCC4)nc3)cnc12 [Example 2, (R)-2-((2-Amino-7-(6-(pyrrolidin-1-ylmethyl)pyridin-3-yl)pyrido[3,2-d]pyrimidin-4-yl)amino)-2-methylhexan-1-ol] |  | 24 nM |
| CCCCC(C)(CO)Nc1nc(N)nc2cc(-c3ccc(CN4CCN(C)CC4)nc3)cnc12 (stereo not drawn) [Example 5, 2-((2-Amino-7-(6-((4-methylpiperazin-1-yl)methyl)pyridin-3-yl)pyrido[3,2-d]pyrimidin-4-yl)amino)-2-methylhexan-1-ol] | 8.3 µM |  |

The next lines start with results.

| IC50 [2] | SMILES | IFNγ MEC [1] |
| --- | --- | --- |
| 16 µM | CCCC[C@](C)(CO)Nc1nc(N)nc2cc(-c3ccc(C4CCN(C)CC4)nc3)cnc12 [Example 4, (R)-2-((2-Amino-7-(6-(1-methylpiperidin-4-yl)pyridin-3-yl)pyrido[3,2-d]pyrimidin-4-yl)amino)-2-methylhexan-1-ol] | 33 nM |
| > 30 µM | CCCC[C@](C)(CO)Nc1nc(N)nc2cc(-c3ccc(CN4CCN(C)CC4)nc3)cnc12 [Example 6, (R)-2-((2-Amino-7-(6-((4-methylpiperazin-1-yl)methyl)pyridin-3-yl)pyrido[3,2-d]pyrimidin-4-yl)amino)-2-methylhexan-1-ol] |  |
| > 30 µM | CCCC[C@](C)(CO)Nc1nc(N)nc2cc(-c3cnc(C4CCN(C)CC4)nc3)cnc12 [Example 8, (R)-2-((2-Amino-7-(2-(1-methylpiperidin-4-yl)pyrimidin-5-yl)pyrido[3,2-d]pyrimidin-4-yl)amino)-2-methylhexan-1-ol] |  |
